The nature of this series: Caco-2 permeation assay. The format is in vitro ADME. Conditions: human, pH 7.2. The protocol:
4. Caco-2 Permeation Assay:
Caco-2 cells (purchased from DSMZ Braunschweig, Germany) were seeded at a density of 4.5×10^4 cells per well on 24 well insert plates, 0.4 μm pore size, and grown for 15 days in DMEM medium supplemented with 10% fetal bovine serum, 1% GlutaMAX (100×, GIBCO), 100 U/mL penicillin, 100 μg/mL streptomycin (GIBCO) and 1% non essential amino acids (100×). Cells were maintained at 37° C. in a humified 5% CO2 atmosphere. Medium was changed every 2-3 day. Before running the permeation assay, the culture medium was replaced by a FCS-free hepes-carbonate transport buffer (pH 7.2). For assessment of monolayer integrity the transepithelial electrical resistance (TEER) was measured. Test compounds were predissolved in DMSO and added either to the apical or basolateral compartment in final concentration of 2 μM in transport buffer. Before and after 2 h incubation at 37° C. samples were taken from both compartments. Analysis of compound content was done after precipitation with methanol by LC/MS/MS analysis. Permeability (Papp) was calculated in the apical to basolateral (A→B) and basolateral to apical (B→A) directions. The apparent permeability was calculated using following equation: Papp=(Vr/Po)(1/S)(P2/t)
Where Vr is the volume of medium in the receiver chamber, Po is the measured peak area or height of the test drug in the donor chamber at t=o, S the surface area of the monolayer, P2 is the measured peak area of the test drug in the acceptor chamber after 2 h of incubation, and t is the incubation time. The efflux ratio basolateral (B) to apical (A) was calculated by dividing the Papp B-A by the Papp A-B. In addition the compound recovery was calculated. The following reference compounds were used for the classification of the permeability class: Antipyrine, Pyrazosin, Verapamil, Fluvastatin, Cimetidine, Ranitidine, Atenolol, Sulfasalazine.

Where [1] appears, read: Caco-2 monolayer, 2 μM test compound, 2 h.

Structures are written as SMILES.

Regarding `COc1cc(F)ccc1-c1cc(Nc2cc(CS(C)(=O)=O)ccn2)ncc1F` [Example 1, 5-Fluoro-4-(4-fluoro-2-methoxyphenyl)-N-{4-[(methylsulfonyl)methyl]pyridin-2-yl}pyridin-2-amine], the efflux ratio (as a rule, the permeability from basolateral to apical divided by that in the opposite direction, in the common usage) at 2 h, 2 μM (Papp B-A / Papp A-B, Caco-2, 2 μM test compound) stood at 0.49. Also, under setting [1], the Papp A→B – broadly, the apparent permeability from the apical to the basolateral side of a cell layer – at 2 h, 2 μM is 20.7 ×10⁻⁶ cm/s and the basolateral-to-apical permeability (Papp B→A) (commonly the apparent permeability from the basolateral to the apical side of a cell layer) at 2 h, 2 μM is 10.1 ×10⁻⁶ cm/s.

Values taken from patent publication US9670161B2, “5-fluoro-N-(pyridin-2-yl)pyridin-2-amine derivatives containing a sulfone group” (BAYER PHARMA AKTIENGESELLSCHAFT, priority 2012, dated 2017).
